Experimental data taken from patent US20140057332A1, “GLUCO-OLIGOSACCHARIDE OXIDASES FROM ACREMONIUM STRICTUM AND USES THEREOF” (The Governing Council of the University of Toronto, priority 2011, published 2014).
Changes are numbered by the printed parent chain.

Key:
[1] = tested on: Acremonium strictum strain T1 gluco-oligosaccharide oxidase GOOX-T1; conditions: cited from earlier work
[2] = molecular target: T1, Acremonium strictum gluco-oligosaccharide oxidase GOOX-VN variant 1 Y300A, SEQ ID NO. 6 (Sarocladium strictum, UniProt D7PF15, A38V/S388N/Y300A); assay: Enzymatic assay, kinetic analysis (chromogenic H2O2 assay) of Y300A; conditions: 37° C., pH 8.0
T1 sequence (D7PF15 1-474 A38V/Y300A/S388N): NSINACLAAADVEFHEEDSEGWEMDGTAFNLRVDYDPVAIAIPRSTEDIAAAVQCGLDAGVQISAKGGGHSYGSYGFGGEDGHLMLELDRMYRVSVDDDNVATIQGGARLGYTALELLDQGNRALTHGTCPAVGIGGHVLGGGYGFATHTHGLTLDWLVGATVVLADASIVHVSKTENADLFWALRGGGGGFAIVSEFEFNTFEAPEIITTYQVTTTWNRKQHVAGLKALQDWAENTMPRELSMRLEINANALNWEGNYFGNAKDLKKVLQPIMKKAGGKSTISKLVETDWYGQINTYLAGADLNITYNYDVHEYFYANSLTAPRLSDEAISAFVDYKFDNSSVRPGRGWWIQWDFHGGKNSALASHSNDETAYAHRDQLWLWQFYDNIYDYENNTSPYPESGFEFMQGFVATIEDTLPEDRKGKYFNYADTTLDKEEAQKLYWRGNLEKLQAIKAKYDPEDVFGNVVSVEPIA
Description: (§1) A chromogenic assay was used to measure hydrogen peroxide production (15). Reactions contained 0.1 mM 4aminoantipyrine (4AA), 1 mM phenol, 0.5 U horseradish peroxidase, 40 mM Tris-HCl (pH 8.0), and different substrates were initiated by adding 0.2 μg of enzymes to the 250 μL reaction mixture. The production of H2O2 was coupled to the oxidation of 4aminoantipyrine by horseradish peroxidase and detected at 500 nm. Reactions were incubated at 37° C. for 15 min to measure the specific activity of GOOX on 10 mM of monosaccharide or 1 mM of oligosaccharide.
(§2) At least 12 substrate concentrations were included to obtain kinetic parameters for each substrate. Initial rates were obtained by measuring reaction products every 30 s for 15 min at 37° C. and pH 8.0, and kinetic parameters were calculated using the Michaelis-Menten equation (GraphPad Prism5 Software).

[3] = molecular target: T2, Acremonium strictum gluco-oligosaccharide oxidase GOOX-VN variant 2 Y300N, SEQ ID NO. 7 (Sarocladium strictum, UniProt D7PF15, A38V/S388N/Y300N); assay: Enzymatic assay, kinetic analysis (chromogenic H2O2 assay) of Y300N; conditions: 37° C., pH 8.0
T2 sequence (D7PF15 1-474 A38V/Y300N/S388N): T1 sequence (D7PF15 1-474 A38V/Y300A/S388N) with A300N
Description: as §1, §2

[4] = molecular target: T3, Acremonium strictum gluco-oligosaccharide oxidase GOOX-VN (type strain CBS 346.70, V38 and N388), SEQ ID NO. 2 (Sarocladium strictum, UniProt D7PF15, A38V/S388N); assay: Enzymatic assay, kinetic analysis (chromogenic H2O2 assay) of GOOX-VN; conditions: 37° C., pH 8.0
T3 sequence (D7PF15 1-474 A38V/S388N): T1 sequence (D7PF15 1-474 A38V/Y300A/S388N) with A300Y
Description: as §1, §2

[5] = tested on: Acremonium strictum gluco-oligosaccharide oxidase (GOOX); conditions: oxidation of maltose, Fan et al. (2000); cited from earlier work

SMILES	catalytic efficiency (in words) ([1]; native GOOX purified from A. strictum T1)	kcat [2] [s⁻¹]	kcat [3] [s⁻¹]	kcat ([1]; recombinant GOOX-T1) [s⁻¹]	kcat [4] [s⁻¹]	kcat ([4]; listed as maltose) [s⁻¹]	Km, pH dependence [5]
OC[C@H]1O[C@@H](O[C@H]2[C@H](O)[C@@H](O)[C@H](O[C@H]3[C@H](O)[C@@H](O)C(O)O[C@@H]3CO)O[C@@H]2CO)[C@H](O)[C@@H](O)[C@@H]1O (stereo partly shown) [Cellotriose, cellotriose]	highest	11.12 ± 0.158	9.983 ± 0.0817				
OC[C@H]1O[C@H](O[C@H]2[C@H](O)[C@@H](O)C(O)O[C@@H]2CO)[C@H](O)[C@@H](O)[C@@H]1O (stereo partly shown) [Maltose, maltose]				6.02	6 ± 0.085	6	highest at pH 9
